# Assay results from article PMC11683478, “Bioprospecting of culturable marine biofilm bacteria for novel antimicrobial peptides” (iMeta, 2024).
# Tests used:
# Experiment in all cases: Antibacterial screen at 200 μg/mL (cell density vs control)
# Assay type in all cases: cell-based
# Settings in all cases: peptide 200 μg/mL, CAMHB, 5 × 10^5 CFU/mL, 37°C, 12 h, OD600; control (no AMP) = 1; three biological replicates
# [1] = system: Acinetobacter baumannii ATCC 19606
# Protocol: (§1) Eight bacterial strains were utilized in the antibacterial experiment. S. aureus ATCC 12600, B. subtilis ATCC 23857, E. coli ATCC 11775, and A. baumannii ATCC 19606 were purchased from Shanghai Beinuo Biology. M. luteus ATCC 4698 and S. bongori ATCC43975 were purchased from Shanghai Beisi Biotechnology. V. owensii ems001 and V. alginolyticus xv22 from the intestines of diseased shrimps were isolated in our laboratory. All strains were cultured in the cation‐adjusted Mueller‐Hinton broth (CAMHB) at 37°C to the logarithmic growth phase (OD600 = 0.5). Then, bacteria were gradient‐diluted using fresh CAMHB to a bacterial density of 5 × 10^5 CFU/mL. Antibacterial experiments were performed in a 96‐well plate with 200 μg/mL final peptide concentration. Four experimental groups were set up, including a blank control (200 μL CAMHB), a negative control (180 μL CAMHB plus 20 μL peptide), a positive control (180 μL bacterial culture plus 20 μL ultrapure water), and an experimental group (180 μL bacterial culture plus 20 μL peptide). Three biological replicates were conducted for each group, and OD600 values were measured after incubation at 37°C for 12 h. Every observed value was removed from the blank control group value. The value of the experimental group was then subtracted from the value of the negative control group therefore eradicating the effect of the peptide on the OD measurement. Student's t‐test allowed the estimation of a notable variation between the experimental and positive groups using a p‐value of 0.05 as the limit. […] The MIC of a peptide against a bacterium was determined as the minimum peptide concentration at which there was no visible bacterial growth.
# [2] = system: Staphylococcus aureus ATCC 12600
# Protocol: as §1
# Vibrio owensii ems001 = system: Vibrio owensii ems001
# Protocol: as §1
# [3] = system: Bacillus subtilis ATCC 23857
# Protocol: as §1
# [4] = system: Escherichia coli ATCC 11775
# Protocol: as §1
# [5] = system: Salmonella bongori ATCC 43975
# Protocol: as §1
# [6] = system: Vibrio alginolyticus xv22
# Protocol: as §1
# [7] = system: Micrococcus luteus ATCC 4698
# Protocol: as §1
Sequence,"cell density relative to control, A. baumannii ATCC 19606 [1]","cell density relative to control, S. aureus ATCC 12600 [2]","cell density relative to control, V. owensii ems001 (Vibrio owensii ems001)","cell density relative to control, B. subtilis ATCC 23857 [3]","cell density relative to control, E. coli ATCC 11775 [4]","cell density relative to control, S. bongori ATCC 43975 [5]","cell density relative to control, V. alginolyticus xv22 [6]","cell density relative to control, M. luteus ATCC 4698 [7]"
"MRPCMCRIGGGH [Cand-13, chemically synthesized candidate AMP predicted from marine biofilm bacteria]",0.816,0.795,1,1,1,0.926,0.942,1
"MRPCMCRIGGRL [Cand-19, chemically synthesized candidate AMP predicted from marine biofilm bacteria]",1,1,1,1,1,0.929,1,1
"MRPGMCRIGGRL [Cand-22, chemically synthesized candidate AMP predicted from marine biofilm bacteria]",1,0.777,1,1,1,0.876,0.862,1
"MRPRLRKRLLR [Cand-187, chemically synthesized candidate AMP predicted from marine biofilm bacteria]",0.766,0.68,1,0.002,0.674,0.256,0.84,0.703
"MRPSMCRIGGRL [Cand-38, chemically synthesized candidate AMP predicted from marine biofilm bacteria]",0.836,0.771,1,0.805,0.861,1,1,1
"MRQGMCRIGGRL [Cand-55, chemically synthesized candidate AMP predicted from marine biofilm bacteria]",0.845,0.793,1,0.908,0.915,1,0,1
"MRRFCCCRCSCCCWPS [Cand-25, chemically synthesized candidate AMP predicted from marine biofilm bacteria]",1,0.422,0.067,1,0.835,0.847,1,1
"MRVGMCRIGGRL [Cand-79, chemically synthesized candidate AMP predicted from marine biofilm bacteria]",0.975,0.728,1,0.837,0.73,0.975,0.8,1
"MSCDLQKVRGCLPRLIVHK [Cand-142, chemically synthesized candidate AMP predicted from marine biofilm bacteria]",1,0.941,1,1,1,0.989,1,1
"MSKIKAKIGHLR [Cand-98, chemically synthesized candidate AMP predicted from marine biofilm bacteria]",0.74,0.721,1,1,0.765,1,1,1
"MSPRICSVISCLMKLRC [Cand-11, chemically synthesized candidate AMP predicted from marine biofilm bacteria]",0.023,0.019,0.023,1,0.967,0.522,0.018,0.931
"MTWPSRSRMWRTC [Cand-129, chemically synthesized candidate AMP predicted from marine biofilm bacteria]",1,0.012,0.021,0.061,0.692,0.704,0.004,0.751
"MVKLLKKMVSLYH [Cand-122, chemically synthesized candidate AMP predicted from marine biofilm bacteria]",0.907,0,0.188,0.002,0.642,0.455,1,0.728
"MWAVARGRR [Cand-195, chemically synthesized candidate AMP predicted from marine biofilm bacteria]",1,0.945,0.958,0.676,1,1,1,0.987
"MWKLPKWRNGRRRGFKIPRW [Cand-109, chemically synthesized candidate AMP predicted from marine biofilm bacteria]",0.01,0,0.039,0.012,0.002,0.019,0.019,0.02
"MWTIYSGIKRSLHYCRRRGYYCSRYGYYS [Cand-43, chemically synthesized candidate AMP predicted from marine biofilm bacteria]",0.385,0.031,0.215,0.67,0,0,0.124,0.297
